Literature values as cited in patent EP0301423B1 (CHIESI FARMACEUTICI S.p.A., priority 1987, dated 1989).

Columns and labels:
coronary flow = conditions: mice
isolated coronary artery = conditions: mice

CCNc1cc(C)nc2ncnn12 [TP1]
effect on coronary flow (coronary flow): increase in the coronary flow | effect on the isolated coronary artery (isolated coronary artery): relaxation of the isolated coronary artery
